Data: ChEMBL document CHEMBL5726588, “Chemically modified quinoline and quinolone derivatives useful as CB-1 inverse agonists” (2017)
pEC50: −log10 of the molar value.

Tests used:
Cannabinoid receptor 1 = Cannabinoid receptor 1 (Homo sapiens, UniProt P21554); experiment: (§1) cAMP Assay : Cells plated the day prior to the assay in clear bottom plates were viewed on an inverse microscope to ensure confluency in the range of 60-75%. The following mixtures and buffer solutions were prepared: (a) Buffer 1: HBSS (Mediatech Cat#21-023-CV) with 5 mM HEPES ([…], Gibco BRL Cat#15630-056) and 0.1% BSA (7.5% stock, Invitrogen Cat#15260-037); (b) Buffer 2: 0.5 mM IBMX (200 mM stock in DMSO, Sigma 15879) in Buffer 1; (c) 1 μM cAMP Standard (50 μM stock, Perkin Elmer Cat# AD0262) diluted in Buffer 2 and serially diluted in Buffer 2, 12 doses @ ½ dilutions resulting in a dose range of 1 μM to 0.5 nM; (d) d2 labelled cAMP (CisBio HTRF Detection Kit Cat #62AM4PEB reconstituted with 6 mL d-H2O) diluted 1/20 with lysis buffer (CisBio HTRF Detection Kit Cat #62AM4PEB); (e) anti-cAMP (CisBio HTRF Detection Kit Cat # 62AM4PEB reconstituted with 5 mL d-H2O) diluted 1/20 with lysis buffer (CisBio HTRF Detection Kit Cat #62AM4PEB); and (f) Forskolin (Sigma Cat# F6886, 10 mM in DMSO) diluted first in DMSO to 1 mM and then to 1.5 μM in Buffer 2.
Cannabinoid receptor 2 = Cannabinoid receptor 2 (Homo sapiens, UniProt P34972); experiment: as §1
Sequence of Cannabinoid receptor 2 (P34972 whole entry): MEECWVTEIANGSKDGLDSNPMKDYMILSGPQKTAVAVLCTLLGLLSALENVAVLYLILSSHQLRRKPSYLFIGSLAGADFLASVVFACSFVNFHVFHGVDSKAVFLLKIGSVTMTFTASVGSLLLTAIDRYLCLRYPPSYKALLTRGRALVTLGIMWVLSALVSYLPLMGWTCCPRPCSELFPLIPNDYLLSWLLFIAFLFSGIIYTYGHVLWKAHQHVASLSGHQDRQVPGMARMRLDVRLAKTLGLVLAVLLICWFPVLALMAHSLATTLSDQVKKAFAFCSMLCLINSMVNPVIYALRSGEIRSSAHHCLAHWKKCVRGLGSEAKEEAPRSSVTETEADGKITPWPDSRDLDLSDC

Sequence of Cannabinoid receptor 1 (P21554 whole entry): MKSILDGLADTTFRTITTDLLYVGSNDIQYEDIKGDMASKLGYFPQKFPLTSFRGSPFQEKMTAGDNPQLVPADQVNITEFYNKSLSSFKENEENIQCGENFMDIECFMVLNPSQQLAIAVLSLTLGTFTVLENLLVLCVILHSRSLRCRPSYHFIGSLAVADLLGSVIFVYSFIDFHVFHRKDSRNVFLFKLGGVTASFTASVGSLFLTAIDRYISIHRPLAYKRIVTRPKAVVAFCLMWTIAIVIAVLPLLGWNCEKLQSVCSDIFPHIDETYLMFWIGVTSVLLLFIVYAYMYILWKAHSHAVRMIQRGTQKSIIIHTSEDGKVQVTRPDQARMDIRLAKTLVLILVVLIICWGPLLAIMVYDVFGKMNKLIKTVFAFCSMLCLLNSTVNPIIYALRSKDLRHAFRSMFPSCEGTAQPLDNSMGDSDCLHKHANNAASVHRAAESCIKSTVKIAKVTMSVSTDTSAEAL

Row | pEC50 (Cannabinoid receptor 1) | pEC50 (Cannabinoid receptor 2) | SMILES
1 | 6.34 | 5.65 | CC(C)(C)OC(=O)CCOCCOCCOCCOCCOCCOCCOCCOCCOCCOCCOCCOCCOc1cc(C(c2ccc(Cl)cc2)c2ccc(Cl)cc2)cc2c(NC3CCN(S(=O)(=O)C(F)(F)F)CC3)ccnc12
2 | 7.48 | 5.90 | NNC(=O)CCOCCOCCOCCOCCOCCOCCOCCOCCOCCNC(=O)CCCCCOc1cc(NC2CCN(S(=O)(=O)C(F)(F)F)CC2)c2cc(C(c3ccc(Cl)cc3)c3ccc(Cl)cc3)ccc2n1
3 | 7.25 | 5.13 | COCCOCCOCCOCCOc1cc(NC2CCN(S(=O)(=O)C(F)(F)F)CC2)c2cc(C(c3ccc(Cl)cc3)c3ccc(Cl)cc3)ccc2n1
4 | 7.44 | 5.37 | NCCOCCOCCOCCOCCOCCOCCOCCOCCOCCOCCOCCOc1cc(NC2CCN(S(=O)(=O)C(F)(F)F)CC2)c2cc(C(c3ccc(Cl)cc3)c3ccc(Cl)cc3)ccc2n1
5 | 5.74 | < 5.00 | CC(C)(C)OC(=O)NCCOCCOCCOCCOCCOCCOCCOCCOCCOCCOCCOCCOc1cc(NC2CCN(S(=O)(=O)C(F)(F)F)CC2)c2cc(C(c3ccc(Cl)cc3)c3ccc(Cl)cc3)ccc2n1
6 | 7.17 | 5.72 | O=S(=O)(N1CCC(Nc2ccnc3c(OCCOCCOCCOCCOCCOCCOCCOCCOCCOCCO)cc(C(c4ccc(Cl)cc4)c4ccc(Cl)cc4)cc23)CC1)C(F)(F)F
7 | 5.31 | < 5.00 | COCCOCCOCCOCCOCCOCCOCCn1c(=O)cc(NC2CCN(S(=O)(=O)C(F)(F)F)CC2)c2cc(C(c3ccc(Cl)cc3)c3ccc(Cl)cc3)ccc21
8 | 6.46 | 5.26 | COCCOCCOCCOCCn1c(=O)c(N2CCN(c3ccccc3)CC2)cc2cc(C(c3ccc(Cl)cc3)c3ccc(Cl)cc3)ccc21
9 | 6.32 | 5.25 | COCCOCCOCCOCCOCCOCCOCCOc1cc(NC2CCN(S(=O)(=O)C(F)(F)F)CC2)c2cc(C(c3ccc(Cl)cc3)c3ccc(Cl)cc3)ccc2n1
